Data published in patent US9345245B2, “Synthetic compounds for vegetative ABA responses” (THE REGENTS OF THE UNIVERSITY OF CALIFORNIA, priority 2012, dated 2016).

How the values were obtained:
Chlamydomonas = assay: Colony growth of Chlamydomonas with and without salinity and osmotic stress; type: in vivo; details: with and without salinity and osmotic stress
Experimental: FIG. 17. The effect of ABA and its agonists in Physcomitrella patens and Chlamydomonas. Protonemal growth images (A) and quantitative analysis (B) of the effects of ABA and agonists on Phsycomitrella patens. Protonema were grown on 200 μM of specific test chemical for 10 days. […] Pyrabactin bleached protonema. (C) The expression of ABA-responsive genes of Physcomitrella patens. Protonema were treated with 200 μM chemical solutions for 3 h. (D) Colony growth of Chlamydomonas on the chemical with salinity stress and osmotic stress. There was no effect of ABA and LC66C6 on the Chlamydomonas growth with and without stresses.

ABA-responsive genes = assay: Quantitative RT-PCR of ABA-responsive genes in Arabidopsis; type: in vivo
Experimental: FIG. 9. LC66C6 induces numerous ABA-responsive genes. […] Ten-day old seedlings were treated with carrier solvent (DMSO) or either 25 μM ABA, pyrabactin or LC66C6 for 8 hours. Total RNA was then prepared labeled and hybridized to ATH1 microarrays. Data plotted are log 2 transformed average expression values for ˜13K probes that were detectable across all experiments. Data shown are averages determined from triplicate biological replicates. (C) and (D) show the expression of a reporter gene in different plant tissues after treatment with vehicle (DMSO), pyrabactin, LC66C6, or (+)-ABA.
Total RNA was isolated using Plant RNA purification reagent (Invitrogen, USA) according to the manufacturer's instructions. cDNA was synthesized from 1 μg of total RNA using the QantiTec reverse transcription kit (Qiagen, USA). Real-time PCR using Maxima® SYBR Green/Fluorescein qPCR Master Mix (Fermentas) was performed with the iQ5 real-time PCR detection system (Bio-Rad, Hercules, Calif.). The relative amounts of target mRNAs were determined using the relative standard curve method and were normalized by relative amount of internal control mRNA. Biological triplicate experiments were performed.

PYR/PYL receptors = assay: Receptor-mediated PP2C inhibition assay, all ABA receptors tested; type: biochemical, Arabidopsis; details: 10 μM; in the presence of all ABA receptors tested
Experimental: HAB1 and PYL proteins were expressed and purified as described previously (Park S Y, et al. (2009) Abscisic Acid Inhibits Type 2C Protein Phosphatases via the PYR/PYL Family of START Proteins. Science 324(5930):1068-1071), with minor modifications. To obtain GST-HAB1, -ABI1 and -ABI2 fusion proteins, the HAB1 cDNA was cloned into pGex-2T whereas ABI1 and ABI2 cDNAs were cloned into the vector pGex-4T-1. Expression was conducted in BL21[DE3]pLysS host cells. Transformed cells were pre-cultured overnight, transferred to LB medium and cultured at 30° C. to culture A600 of 0.5. The culture was then cooled on ice and MnCl2 added to 4 mM and IPTG added to 0.3 mM. After 16 hours incubation at 15° C., cells were harvested and recombinant proteins were purified on glutathione agarose as described previously (Park S Y, et al. (2009). To obtain 6×His-PYL receptor fusion proteins, receptor cDNAs for all 13 ABA receptors were cloned into the vector pET28 and expressed and purified as described previously (Mosquna A, et al. (2011) Potent and selective activation of abscisic acid receptors in vivo by mutational stabilization of their agonist-bound conformation. PNAS 108(51):20838-20843); this yielded soluble and functional protein (assessed using receptor-mediated PP2C inhibition assays) for all receptors except PYL7, PYL11 and PYL12. […]

Arabidopsis seeds = assay: Arabidopsis seed germination inhibition; type: in vivo; details: pyr1/pyl1/pyl2/pyl4 quadruple mutant; 5 μM
Experimental: FIG. 5. Novel ABA agonists inhibit germination of Arabidopsis seeds more strongly than pyrabactin. (A) and (B) Comparison of seed germination inhibition by ABA agonists. (C) and (D) the effects of ABA and LC66C6 (also called quinabactin) on Arabidopsis ABA signaling- and biosynthesis-deficient mutants on germination (C) and seedling establishment (D). Seeds were sown on ½×MS agar plate containing chemicals, and were stored at 4° C. for 4 days, then transferred at 22±2° C. Photographs (A and C) and germination (B) or green cotyledon (D) scores were assessed after a 4-day incubation under continuous illumination. […] For Arabidopsis germination and hypocotyl growth inhibition analysis, seeds after-ripened about 4 weeks were surface-sterilized with a solution containing 5% NaClO and 0.05% Tween-20 for 10 minutes, and rinsed with water four times. Sterilized seeds were suspended with 0.1% agar and sowed on the 0.8% solidified agar medium containing ½ Murashige and Skoog (MS) salts (Sigma-Aldrich) in the presence of chemicals and were stored at 4° C. for 4 days, then transferred at 22° C. under the dark or light. Germination was determined after a 4-day incubation, whereas hypocotyl growth was photographed after 6-day incubation.

[1] = test system: CYP707A ABA-hydroxylating enzymes; assay: Growth and germination in CYP707A overexpressing and cyp707a double mutant plants; type: in vivo, Arabidopsis; details: 40 μM
Text: FIG. 12. LC66C6 sensitivity is not influenced by the CYP707A ABA-hydroxylating enzymes.

## CC1=CC(=O)CC(C)(C)C1(O)/C=C/C(C)=C\C(=O)O (single isomer, unassigned; (+)) [(+)-ABA, Abscisic acid]
Chlamydomonas
  effect on growth of Chlamydomonas: no effect
ABA-responsive genes; Col and Ler ecotypes and pyr1, pyl1, ply2, pyl3 and pyl4 single mutants
  induction of MAPKKK18, RD29A, and RD29B mRNAs: induced
ABA-responsive genes; Col wild-type plants
  expression of ABF3, GBF3, NCED3, and RD29A: induced expression of ABF3, GBF3, NCED3, and RD29A in a dose dependent manner
ABA-responsive genes; abi1-1 and PYR/PYL quadruple mutant plants
  expression of ABF3, GBF3, NCED3, and RD29A: induction levels were impaired
PYR/PYL receptors
  PPC2 enzyme activity of HBA1, ABI1, and ABI2 inhibited: > 90%
Arabidopsis seeds
  inhibition of germination in quadruple mutant: inhibit germination in the quadruple mutant
[1]; CYP707AOX vs wild-type
  inhibition of plant growth and germination in plants that overexpress CYP707A: reduced
[1]; cyp707a double mutant vs wild-type
  inhibition of plant growth and germination in cyp707a double mutant: enhanced
